Data: patent EP0451422A1, “Pharmaceutically active fluoromethyltyrosine compounds” (MERRELL DOW PHARMACEUTICALS INC., priority 1990, dated 1991)

Target: T1, tyrosine hydroxylase (Mus musculus, UniProt P24529)
T1 construct: from tissue; host or cells: living mice
Test: In vivo inhibition of tyrosine hydroxylase (cortical norepinephrine levels in mice, HPLC with electrochemical detection)
Settings: mice injected intraperitoneally; cerebral cortices removed six hours later; norepinephrine in tissue; dose not given; control 198.2 +/- 18.4 ng/g
Description: The tyrosine hydroxylase inhibitory properties of the compounds of this invention can readily be determined by standard and well known procedures. For example, determination of tyrosine hydroxylase inhibition is exemplified by a procedure wherein mice are injected intraperitoneally with a test compound, and six hours later the mice are sacrificed, the cerebral cortices removed and frozen on dry ice. The levels of norepinephrine in the tissue are measured by HPLC with electrochemical detection, according to the process of Dudley, et al, J. Pharmacol. Exp. Ther., 217, 834-840 (1981). Reduction in cortical norepinephrine levels indicates effective, in vivo inhibition of tyrosine hydroxylase. The following Table I illustrates the decreased levels of norepinephrine after treatment with a compound of this invention (2-fluoromethyl tyrosine) in relation to levels of norepinephrine present after treatment with a known inhibitor (alpha-methyl-p-tyrosine), and as compared to the amount of norepinephrine produced without treatment with a test compound (control).

T1 sequence (P24529 whole entry): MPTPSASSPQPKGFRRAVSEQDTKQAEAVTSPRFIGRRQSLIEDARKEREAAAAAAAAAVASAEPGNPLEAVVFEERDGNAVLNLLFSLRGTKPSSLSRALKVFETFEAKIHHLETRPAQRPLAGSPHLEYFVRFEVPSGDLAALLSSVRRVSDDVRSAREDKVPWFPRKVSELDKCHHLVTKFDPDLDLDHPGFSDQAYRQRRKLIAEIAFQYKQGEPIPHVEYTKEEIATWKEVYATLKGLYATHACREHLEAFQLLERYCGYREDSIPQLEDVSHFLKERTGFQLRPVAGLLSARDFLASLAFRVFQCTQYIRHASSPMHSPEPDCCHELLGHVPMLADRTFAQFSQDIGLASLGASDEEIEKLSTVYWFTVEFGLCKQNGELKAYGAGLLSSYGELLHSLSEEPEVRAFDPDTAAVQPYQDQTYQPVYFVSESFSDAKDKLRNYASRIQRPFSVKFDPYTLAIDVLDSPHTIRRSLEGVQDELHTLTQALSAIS

Row | NOREPINEPHRINE [ng/g] | SMILES
1 | 124.9 ± 11.4 | N[C@@H](Cc1ccc(O)cc1CF)C(=O)O [2-fluoromethyl-tyrosine, 2-Fluoromethyltyrosine]
2 | 115.7 ± 18.6 | CC(N)(Cc1ccc(O)cc1)C(=O)O (stereo not drawn) [α-methyl-p-tyrosine]
